From publication PMC4379580 (Viruses, 2015)
pKd: −log10 of the molar value.

Assays:
WT-His-P9-1 [1] = target: WT-His-P9-1 (Southern rice black-streaked dwarf virus, UniProt B2LHU4, S138T); assay: biochemical
WT-His-P9-1 [2] = target: T1, WT-His-P9-1 (Southern rice black-streaked dwarf virus, UniProt B2LHU4); assay: intrinsic fluorescence quenching titration; format: binding; settings: 298 K, pH 7.4, 20 μM protein, excitation 275 nm, Hill equation
T1 construct: protein encoded by first ORF of segment S9 (P9)

TR-ΔN6-His-P9-1 = TR-ΔN6-His-P9-1 (Southern rice black-streaked dwarf virus, UniProt B2LHU4); settings: 298 K, 20 μM protein, excitation 275 nm, Hill equation
TR-ΔC23-His-P9-1 = TR-ΔC23-His-P9-1 (Southern rice black-streaked dwarf virus, UniProt B2LHU4); settings: 298 K, 20 μM protein, excitation 275 nm, Hill equation

CCOP(=O)(OCC)C(Nc1nc2c(C)cccc2s1)c1ccccc1F (stereo not shown) [DFL, dufulin]
pKd (WT-His-P9-1 [1]): 5.01 | Binding parameters / KA (M^-1) (WT-His-P9-1 [2]): 1 × 10^5.061 | Binding parameters / KA (M^-1) (TR-ΔN6-His-P9-1): 1 × 10^6.421 | Binding parameters / KA (M^-1) (TR-ΔC23-His-P9-1): 1 × 10^4.470
